In the NIST ThermoML archive (doi:10.1021/je400373d):

How the values were obtained:
[1] = Liquid, Ebulliometric method (Recirculating still)
[2] = Boiling temperature at pressure P; details: 101.33 kPa; Liquid; Ebulliometric method (Recirculating still)

OCCO [1,2-ethanediol]
[1]
Details	vapor or sublimation pressure [kPa]
422.75 K	20
422.8 K	20
433.66 K	30
433.71 K	30
441.66 K	40
441.7 K	40
470.47 K	101.3

CNCCO [2-(methylamino)ethanol]
[1]
Details	vapor or sublimation pressure [kPa]
388 K	20
388.04 K	20
397.89 K	30
397.95 K	30
405.45 K	40
405.48 K	40
431.2 K	101.3

Details	Boiling temperature at pressure P [°C]
[2]	158.1

CN(CCO)CCO [N-methyldiethanolamine]
[1]
Details	vapor or sublimation pressure [kPa]
467.34 K	20
467.4 K	20
479.37 K	30
479.4 K	30
488.14 K	40
488.17 K	40
520.28 K	101.3
